The text below walks through data of the OPERA property sets (Mansouri et al. 2018).

In brackets after ≈: the same amount, converted by molar mass.

As usually defined, the logP is a log measure of how a compound divides between an organic and an aqueous phase. High values mean higher lipophilicity, low ones lower lipophilicity. For the compound `CCOC(=O)C(=Cc1ccc2c(c1)OCO2)NC=O`, the logP is 1.66. Same read-out and setting: next, `CCOC(=O)C(=Cc1cccc([N+](=O)[O-])c1)NC=O`: 2.05; `CCOC(=O)C(=Cc1ccccc1)NC=O`: 2.48. On the same count and under the same terms, next, `CCOC(=O)C(=Cc1ccc(Cl)cc1)NC=O`: 2.65; `CCOC(=O)C(=Cc1cccc(Cl)c1)NC=O`: 2.51. Broadly, the solubility is the concentration that dissolves in the medium under given conditions. `CCOC(=O)C(=Cc1ccoc1)NC=O` registered a logP of 2.08. The compound also displayed a solubility (25 °C) of 1790 µM (≈ 374 µg/mL).

In turn, `CCOC(=O)C(=Cc1ccccc1Cl)NC=O` gave a logP of 2.41. On the same count and under the same terms, next, `CCOC(=O)C(=Cc1ccc(OC)cc1)NC=O`: 2.22; `CCOC(=O)C(=Cc1ccc(OC)c(OC)c1)NC=O`: 1.97.

On to `CCOC(=O)C(=Cc1ccc([N+](=O)[O-])cc1)NC=O`, for which the logP came to 2.05.
